Data as given in US20080207928A1 (priority 2005, published 2008).
Read-outs that look alike come from different tables or passages of the source.

What was measured:
human recombinant CB1 = molecular target: T1, human recombinant CB1 (Homo sapiens, UniProt P21554); assay: CB1R radioligand binding, membranes from HEK293 cells over-expressing human recombinant CB1
T1 construct: purchased Perkin-Elmer; host or cells: HEK293
Experimental: (§1) Flavonoid compounds of general formula (I) above were evaluated for their ability to activate Cannabinoid Receptor 1 (CBLR) and Cannabinoid Receptor 2 (CB2R).
CB1R experiments were performed using membranes from HEK293 cells over-expressing human recombinant CB1, as described by the manufacturer (Perkin-Elmer) and using [3H]CP-55,490 as the radioligand.
(§2) Data of active compounds are expressed in Ki (mM) and are means±SEM of n=3 determinations.
(§3) The values that are stated for each of the compounds is an EC50 value. This is defined as the molar concentration of an agonist, which produces 50% of the maximum possible response for that agonist. The values documented are in micromolar units.

human recombinant CB2 = molecular target: T2, human recombinant CB2 (Homo sapiens, UniProt P34972); assay: CB2R radioligand binding, membranes from HEK293 cells over-expressing human recombinant CB2
T2 construct: purchased Perkin-Elmer; host or cells: HEK293
Experimental: as §1
CB2R experiments were performed using membranes from HEK293 cells over-expressing human recombinant CB2, as described by the manufacturer (Perkin-Elmer), and using [3H]CP-55,495 as the radioligand.
as §2, §3

T1 sequence (P21554 whole entry): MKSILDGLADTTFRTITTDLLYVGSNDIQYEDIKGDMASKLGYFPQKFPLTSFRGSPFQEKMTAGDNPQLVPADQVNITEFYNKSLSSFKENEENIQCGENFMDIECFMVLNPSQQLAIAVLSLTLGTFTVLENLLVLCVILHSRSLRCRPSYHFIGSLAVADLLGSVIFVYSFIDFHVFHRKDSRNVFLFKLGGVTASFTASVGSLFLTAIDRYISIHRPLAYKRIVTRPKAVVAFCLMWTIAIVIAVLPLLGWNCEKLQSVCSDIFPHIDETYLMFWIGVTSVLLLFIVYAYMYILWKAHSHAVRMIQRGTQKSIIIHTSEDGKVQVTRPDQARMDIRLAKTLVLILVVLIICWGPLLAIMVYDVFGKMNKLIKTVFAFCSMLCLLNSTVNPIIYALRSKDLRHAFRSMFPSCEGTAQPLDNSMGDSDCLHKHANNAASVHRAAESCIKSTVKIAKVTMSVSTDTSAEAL
T2 sequence (P34972 whole entry): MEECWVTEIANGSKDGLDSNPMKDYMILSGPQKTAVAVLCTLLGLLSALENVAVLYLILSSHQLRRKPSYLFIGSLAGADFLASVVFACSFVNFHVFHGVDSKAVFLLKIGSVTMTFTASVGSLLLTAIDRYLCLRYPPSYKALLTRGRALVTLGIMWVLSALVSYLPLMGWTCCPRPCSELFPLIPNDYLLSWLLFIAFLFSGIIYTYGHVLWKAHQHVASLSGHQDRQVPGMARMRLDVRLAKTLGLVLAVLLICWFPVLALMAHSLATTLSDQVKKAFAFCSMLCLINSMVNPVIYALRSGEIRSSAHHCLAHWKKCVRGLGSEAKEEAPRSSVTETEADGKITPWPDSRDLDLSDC

Question: `COc1cc(O)c(CC=C(C)C)c2c1C(=O)C[C@@H](c1ccc(O)cc1)O2` [Example 1, 4′, 7-dihydroxy-5-methoxy-8-prenylflavanone] was tested. Which EC50 (human recombinant CB1) did it give?
Answer: 7.5 µM

Question: And the EC50 (human recombinant CB2)?
Answer: > 25 µM

Question: Which EC50 (human recombinant CB1) does the source give for `CC(C)=CCc1c(O)cc(O)c2c1O[C@H](c1ccc(O)cc1)CC2=O` [Example 2, 4′,5,7-trihydroxy-8-prenylflavanone] here?
Answer: 4.6 µM

Question: And the EC50 (human recombinant CB2)?
Answer: > 25 µM

Question: Which EC50 (human recombinant CB1; HEK293 membranes, [3H]CP-55,490 radioligand, means of n=3, read-out: CB1R Activity) does the source give for `O=C1C[C@@H](c2ccccc2)Oc2cc(O)cc(O)c21` [Example 3, 5,7-dihydroxyflavanone] here?
Answer: > 25 µM

Question: And the EC50 (human recombinant CB2; HEK293 membranes, [3H]CP-55,495 radioligand, means of n=3, read-out: CB2R Activity)?
Answer: 15.5 µM

Question: Which results are given for `COc1cc(O)c2c(c1)O[C@H](c1ccccc1)CC2=O` [Example 4, 5-hydroxy-7-methoxyflavanone]?
Answer: EC50 (human recombinant CB1): 0.8 µM; activation of Cannabinoid Receptor 1 (statement in words) (human recombinant CB1): can activate both; EC50 (human recombinant CB2): 9.1 µM; activation of Cannabinoid Receptor 2 (statement in words) (human recombinant CB2): can activate both

Question: Which results are given for `COc1cc(O)c2c(c1)O[C@H](c1ccc(O)cc1)CC2=O` [Example 5, 5,4′-dihydroxy-7-methoxyflavanone]?
Answer: EC50 (human recombinant CB1): 3.8 µM; EC50 (human recombinant CB2): > 25 µM
